Molecules are shown by their SMILES.

Experimental findings from patent publication US20080214589A1, “Thrombin Inhibiting 2,4-Dioxo-3,4-Dihydropyrimidine Derivatives” (ASTRAZENECA AB, priority 2005, published 2008) are described below.

This test has as its target T1, Human a-thrombin (Homo sapiens, UniProt P00734).
T1 construct: Human a-thrombin, Sigma Chemical Co. or Hematologic Technologies; purchased Sigma Chemical Co. or Hematologic Technologies
The experiment in a line: Test B: thrombin inhibition with a chromogenic, robotic assay. It is filed as biochemical. To be noted: chromogenic substrate S-2366, 40 minutes incubation at 37° C. The procedure:
Determination of Thrombin Inhibition with a Chromogenic, Robotic Assay
The thrombin inhibitor potency is measured with a chromogenic substrate method, in a Plato 3300 robotic microplate processor (Rosys AG, CH-8634 Hombrechtikon, Switzerland), using 96-well, half volume microtitre plates (Costar, Cambridge, Mass., USA; Cat No 3690). Stock solutions of test substance in DMSO (72 μL), 0.1-1 mmol/L, are diluted serially 1:3 (24+48 μL) with DMSO to obtain ten different concentrations, which are analysed as samples in the assay. 2 μL of test sample is diluted with 124 μL assay buffer, 12 μL of chromogenic substrate solution (S-2366, Chromogenix, Mölndal, Sweden) in assay buffer and finally 12 μL of a-thrombin solution (Human a-thrombin, Sigma Chemical Co. or Hematologic Technologies) in assay buffer, are added, and the samples mixed. The final assay concentrations are: test substance 0.00068-133 μmol/L, S-2366 0.30 mmol/L, a-thrombin 0.020 NIHU/mL. The linear absorbance increment during 40 minutes incubation at 37° C. is used for calculation of percentage inhibition for the test samples, as compared to blanks without inhibitor. The IC50-robotic value, corresponding to the inhibitor concentration which causes 50% inhibition of the thrombin activity, is calculated from a log concentration vs. % inhibition curve.

A word on the IC50: it is the midpoint of a concentration-inhibition curve. On to `Cc1cc(N)nc(C)c1CNC(=O)Cn1c(C)cc(=O)n(NCC(F)(F)c2ccccn2)c1=O` [5(a), N-[(6-Amino-2,4-dimethylpyridin-3-yl)methyl]-2-[3-[(2,2-difluoro-2-pyridin-2-ylethyl)amino]-6-methyl-2,4-dioxo-3,4-dihydropyrimidin-1(2H)-yl]acetamide], for which inhibition was half-maximal at 169 nM (IC50). For `Cc1cc(=O)n(NCC(F)(F)c2ccccn2)c(=O)n1CC(=O)NCc1cc(Cl)ccc1CN` [Example 2, N-[2-(Aminomethyl)-5-chlorobenzyl]-2-[3-[(2,2-difluoro-2-pyridin-2-ylethyl)-amino]-6-methyl-2,4-dioxo-3,4-dihydropyrimidin-1(2H)-yl]acetamide] the value was 32.7 nM.
